Test system: bESC lines Alp 0501 and Alp 0505
Assay: bESC differentiation to mesoderm, qPCR of Oct4 and Brachyury
Assay type: cell-based, bovine
Settings: 8 μM CHIR 99021 added to Essential 6 medium, aggregates expanded three days, FIG. 5
Method: Quantitative PCR (qPCR) analysis was performed as follows: • 1. Total RNA was extracted from the cells using GeneJET RNA purification kit (Thermo Fisher Scientific). • 2. Reverse transcription was carried out with RevertAid First Strand cDNA Synthesis Kit (Thermo Fisher Scientific). 3. Quantitative PCR (qPCR) was performed to analyze expression of specific genes using specific primers designed for use in probe-based detection method. • 4. All expression data were normalized to beta-actin. Relative quantification of fold change was calculated using the comparative Ct (ΔΔCt) method. Initial differentiation of bESC to mesoderm: • 1. Cells were harvested and seeded for aggregates formation in 6-well plates as detailed in example 4 below. • 2. The initial conditions were: • a. bESC in the growth medium mTeSR1 (StemCell technologies) • b. bESC in the growth medium Essential 8 (Thermo Fisher Scientific) • 3. Four days after seeding, the medium was replaced to form the following conditions: • a. Medium of bESC aggregates formed in mTeSR1 remained. • b. Medium of bESC aggregates formed in Essential 8 medium was replaced to Essential 6 medium (Thermo Fisher Scientific) • Or— • c. Medium of bESC aggregates formed in Essential 8 medium was replaced to Essential 6 supplemented with 8 μM CHIR 99021. • 4. […]

## Cc1cnc(-c2cnc(NCCNc3ccc(C#N)cn3)nc2-c2ccc(Cl)cc2Cl)[nH]1 [CHIR 99021, 6-[[2-[[4-(2,4-Dichlorophenyl)-5-(5-methyl-1H-imidazol-2-yl)-2-pyrimidinyl]amino]ethyl]amino]-3-pyridinecarbonitrile]
  Brachyury expression (initial mesoderm marker): increase
  Oct4 expression (pluripotency marker): additional decrease

Source: US12247216B2, “Pluripotent cell aggregates and use thereof” (ALEPH FARMS LTD., priority 2019, dated 2025)
